Several values for one entry are separate records, joined by “and”; a condition that tells them apart may be missing. Equal entries are not always repeated.
How the values were obtained:
horse poly-IgG = conditions: read-out: IC50 of H2O2 on the photo-production of H2O2 by horse poly-IgG; horse IgG 6.7 μM, H2O2 0-450 μM, near-UV
Experimental: Such a graph permits determination of the IC50 of H2O2 on the photo-production of H2O2 by horse poly-IgG. A solution of horse IgG (6.7 μM) was incubated with varying concentrations of H2O2 (0-450 μM) and the initial rate of H2O2 formation measured as described in FIG. 8A.

[1] = Decomposition of O3 under aqueous conditions; assay type: physicochemical; conditions: PBS pH 7.4, 22° C.
Experimental: The rate of decomposition of O3 under the aqueous conditions employed was measured by the following method. Ozone, produced by a passage of O2 through a Polymetrics ozonizer, was bubbled for 2 min through a phosphate buffered saline (PBS, pH 7.4) solution in a quartz cuvette (1 cm^2) at room temperature. The time-dependent change in optical density was then measured at 260 nm (ε=2,700 M^−[…]) for at least 5 half lives in a Hitachi u.v./vis spectrophotometer equipped with a thermostatted rack at 22° C. See Takeuchi et al., Anal. Chim. Acta. 230, 183 (1990). […] The sensitivity of the assay was limited by spectrophotometer accuracy to ±0.1% (˜1 μM) of the OD at t=0.

E. coli = assay: Bactericidal assay (CFU recovery), strain not singled out; assay type: cell-based; conditions: 40 μM, white light 2.7 mW cm^−2, 1 h, PBS, 4±1° C.
Experimental: (§1) In a typical experiment, a culture of E. coli (in log phase growth, OD600=0.2-0.3) was repeatedly pelleted (3×3,500 rpm) and resuspended in PBS (pH 7.4). The PBS suspended cells were then added to glass vials and cooled to 4° C. […] Viability was determined by recovery of colony forming units (CFUs) on agar plates. Each experiment was performed at least in duplicate.
as §1, with “washed in PBS by pelleting” for “pelleted”, “rpm) the cells” for “rpm)”, “resuspending them” for “resuspended”

[2] = Antibody/protein UV irradiation with Amplex Red quantitative assay for hydrogen peroxide; assay type: biochemical; conditions: for reduction of ^1O2 (panel of other proteins): UV irradiation, PBS
Experimental: Aliquots (10 μL) were removed at timed intervals throughout the assay. H2O2 concentration was determined by the amplex red method. Each data point is reported as the mean±SEM of at least duplicate measurements: ? polyclonal (poly) immunoglobulin (Ig) G, human; O poly-IgG, horse; ? poly-IgG, sheep; ∇ monoclonal (m) IgG (WD1-6G6), murine; ? poly-IgM, human; ? mIgG (92H2), murine; ¦ β-galactosidase (β-gal); ? chick ovalbumin (OVA); ? a-lactalbumin (a-lact); ? bovine serum albumin (BSA).
Antibody/Protein Irradiation.
Quantitative Assay for Hydrogen Peroxide. An aliquot (20 μl) from the protein solution was removed and added into a well of a 96-well microtiter plate (Costar) containing reaction buffer (80 μl). Working solution (100 μl/400 μM Amplex Red reagent 1/2 units/ml horseradish peroxidase) was then added, and the plate was incubated in the dark for 30 min. The fluorescence of the well components was then measured using a CytoFluor Multiwell Plate Reader (Series 4000, PerSeptive Biosystems, Framingham, Mass.; Ex/Em: 530/580 nm). The hydrogen peroxide concentration was determined using a standard curve. All experiments were run in duplicate, and the rate is quoted as the mean of at least two measurements.
A suspension of crystals of the Fab fragment of 1D4 (2 μl) was diluted with PBS (198 μl, pH 7.4) and vortexed gently. Following centrifugation, the supernatant was removed, and the washing procedure was repeated twice further. The residual crystal suspension was then diluted into PBS, pH 7.4 (100 μl), and added into a well of a quartz ELISA plate. Following UV irradiation for 30 min, Amplex Red working solution (100 μl) was added, and the mixture was viewed on a fluorescence microscope.
Denaturation. […] The resultant solution was transferred to a glass, screw-cap vial and irradiated with UV light for 30 min. The concentration of H2O2 was determined after 30 min.

E. coli XL1-blue = assay: Bactericidal assay (CFU recovery); assay type: cell-based; conditions: catalase 13 mU/mL
Experimental: (§2) In a typical experiment, a culture of E. coli (in log phase growth, OD600=0.2-0.3) was repeatedly pelleted (3×3,500 rpm) and resuspended in PBS (pH 7.4). The PBS suspended cells were then added to glass vials and cooled to 4° C. Hematoporphyrin IX (40 μM) and antibody (20 μM) were added and the vials were either placed on a light box (visible light, 2.8 mW cm^−2) or in the dark at 4° C. and incubated for 1 h. Viability was determined by recovery of colony forming units (CFUs) on agar plates. Each experiment was performed at least in duplicate.
as §2, with “washed in PBS by pelleting” for “pelleted”, “rpm) the cells” for “rpm)”, “resuspending them” for “resuspended”

OO [Clone H2O2, hydrogen peroxide]
IC50 (horse poly-IgG): ~225 µM and 225 µM

O=[O+][O-] [Clone O3, ozone]
half-life (t1/2) under aqueous conditions [1]: 1.1 min

CC1=C(CCC(=O)O)c2cc3[nH]c(cc4nc(cc5[nH]c(cc1n2)c(C)c5C(C)O)C(C)=C4C(C)O)c(C)c3CCC(=O)O (centres unmarked) [hematoporphyrin IX]
bactericidal activity of sensitizer alone (E. coli): negligible bactericidal activity

N[C@@H](Cc1c[nH]c2ccccc12)C(=O)O [tryptophan]
H2O2 produced during near-UV photo-oxidation ([2]; near-UV irradiation, 20 μM): ca. 0.5 mole equivalents

catalase
protection against the bactericidal activity of non-specific antibodies (E. coli XL1-blue): complete protection

β-galactosidase
H2O2 generated during near-UV irradiation ([2]; near-UV irradiation, 6.7 μM): 5.9 mol eq.

B1: chick ovalbumin: chick-egg ovalbumin (protein, UniProt P01012 2-386, looked up)
Ovalbumin: GSIGAASMEFCFDVFKELKVHHANENIFYCPIAIMSALAMVYLGAKDSTRTQINKVVRFDKLPGFGDSIEAQCGTSVNVHSSLRDILNQITKPNDVYSFSLASRLYAEERYPILPEYLQCVKELYRGGLEPINFQTAADQARELINSWVESQTNGIIRNVLQPSSVDSQTAMVLVNAIVFKGLWEKAFKDEDTQAMPFRVTEQESKPVQMMYQIGLFRVASMASEKMKILELPFASGTMSMLVLLPDEVSGLEQLESIINFEKLTEWTSSNVMEERKIKVYLPRMKMEEKYNLTSVLMAMGITDVFSSSANLSGISSAESLKISQAVHAAHAEINEAGREVVGSAEAGVDAASVSEEFRADHPFLFCIKHIATNAVLFFGRCVSP
reduction of ^1O2 (panel of other proteins) [2]: one of the most efficient proteins

B2: RNase A: ribonuclease, no Trp residues, several disulfide bonds (protein, UniProt P61823 27-150, looked up)
Ribonuclease pancreatic: KETAAAKFERQHMDSSTSAASSSNYCNQMMKSRNLTKDRCKPVNTFVHESLADVQAVCSQKNVACKNGQTNCYQSYSTMSITDCRETGSSKYPNCAYKTTQANKHIIVACEGNPYVPVHFDASV
reduction of ^1O2 (panel of other proteins) [2]: do not reduce
